Values of other authors, collected in US20050249799A1, “Polymeric drug delivery system for hydrophobic drugs” (Spherics, Inc., priority 2004, published 2005).
Where two headings read alike, the source gives them in different places.

Tests used:
[1] = not given; remark: listed apart in the source

In the case of Nc1nc2c(ncn2COCCO)c(=O)[nH]1 [Acyclovir, 2-amino-1,9-dihydro-9-[(2-hydroxyethoxy)methyl]-6H-purin-6-one], the absolute bioavailability (200 mg dose given every 4 hours) is listed as 20%.

For NC(=O)N1c2ccccc2C=Cc2ccccc21 [Carbamazepine, 5H-dibenz[b,f]azepine-5-carboxamide], the “time to peak plasma concentrations” value (oral) is listed as 4 to 24 h, the bioavailability (tablet form) is listed as 89% and the solubility in water [1] is listed as “practically insoluble”.

For C#C[C@]1(O)CC[C@H]2[C@@H]3CCC4=Cc5oncc5C[C@]4(C)[C@H]3CC[C@@]21C [Danazol, 17a-Pregna-2,4-dien-20-yno[2,3-d]-isoxazol-17-ol], the half-life (in vivo) is listed as 4 to 5 h, the “increase in plasma concentration on doubling the dose” value (oral) is listed as 30-40% and the “time to peak plasma concentrations” value (oral) is listed as at most 2 h.

For CCC(C)n1ncn(-c2ccc(N3CCN(c4ccc(OCC5COC(Cn6cncn6)(c6ccc(Cl)cc6Cl)O5)cc4)CC3)cc2)c1=O (centres unmarked) [itraconazole, Itraconazole], the bioavailability (oral capsule) is given as 55%.
